From PMC8599359 (Molecular Neurobiology, 2021)

Key:
Type in all cases: in vivo, mouse
[1] = PK and BD of DTG during pregnancy; conditions: for Kp: C3H/HeJ, mouse, oral, 50 mg/kg
From the text: Drug administration was started at the day of plug detection (GD 0.5) and continued up to the day of birth of pups. Blood samples were collected from dams into heparinized tubes by cheek puncture (submandibular vein) using a 5-mm lancet (MEDIpoint, Inc., Mineola, NY) at GD 8.5 and 16.5 and postnatal days (PND) 4, 12, and 21 for plasma collection. […] Each sample (plasma or tissue) evaluated for DTG levels was randomly selected from distinct litters.
DTG was purchased from BOC Sciences (Shirley, NY). […]
PK and BD of DTG during pregnancy
DTG levels were quantitated in plasma, and tissue homogenates by ultraperformance liquid chromatography tandem mass spectrometry (UPLC-MS/MS). […]
ml of acetonitrile (ACN) and 10 µl of internal standard (IS) solution were added to 2 5 µl of plasma.
DTG-d3 at a final concentration of 50 ng/m l ser ved as the IS. Samples were vortexed and centrifuged at 17,000×g for 10 min at 4 °C. Supernatants were dried using a speed- vac and reconstituted in 100 µl 50% (v/v) ACN in water. The samples were vortexed and centrifuged at […]
analysis, 50– 200 mg of tissue (placenta, fetal brain) was homogenized in 9 volumes of 90% (v/v) methanol (MeOH) in water using a Qiagen TissueLyzer II (Valencia, CA). Subsequently, 280 µl o f MeOH, 10 µl of 80% (v/v) MeOH in water, and 10 µl IS were added to 100 µl of tissue homogenate.
Samples were then vortexed, left for 5 min on ice and centrifuged at 17,000 × g and 4 °C for 15 min. Twenty µl of supernatant was mixed with 80 µl of 50% (v/v) ACN in water. The samples were centrifuged at 17,000 × g at 4 °C f or 10 m in and the supernatant was used for analysis. Standard

[2] = Embryo phenotype assessments; conditions: female, C3H/HeJ, mouse, in vivo, oral; GD 16.5, 50 mg/kg/day; read-out: Total viable embryos (%)
From the text: For all animal experiments, C3H/HeJ (10–12 weeks of age, male and female) were purchased from the Jackson Laboratory (Bar Harbor, ME), and were housed in microisolator cages containing autoclaved corncob bedding, and maintained on a 12‐h light‐dark cycle in climate‐controlled laboratory animal facilities approved by the University of Nebraska Medical Center Institutional Animal Care and Use Committee (IACUC). Mice were given free access to irradiated rodent feed (TD. 180,911, Envigo Teklad diet, Madison, WI) and sterile water. Animals were acclimated to the environment for approximately 7–14 days to determine that they were healthy based on observed behavior and weight gain. A female was placed with a male overnight for the purpose of timed matings. The following morning males were removed from the cages and positive vaginal plugs were identified. […] The time of conception was considered to be midnight on the evening of the mating. Treatment of plugged females was started at the morning of the day of plug detection (gestation day (GD) 0.5). […] Pregnant dams were randomly assigned to DTG or vehicle (control) group. Weight gain in dams was measured on GD 0.5, 5.5, 10.5, and 15.5. At GD 16.5, dams were humanely euthanized, and embryos and placenta were harvested. Embryos were evaluated for NTDs. At the time of harvest, the total number of implants (litter size, resorption rates, or viable embryos) was recorded for each pregnancy. Further, whole brain tissues from normal viable embryos were isolated and processed for examination of MMP expression and activity.

C3H/HeJ mice pups = test: Pregnancy and postnatal outcomes after in utero exposure
From the text: For all animal experiments, C3H/HeJ (10–12 weeks of age, male and female) were purchased from the Jackson Laboratory (Bar Harbor, ME), and were housed in microisolator cages containing autoclaved corncob bedding, and maintained on a 12‐h light‐dark cycle in climate‐controlled laboratory animal facilities approved by the University of Nebraska Medical Center Institutional Animal Care and Use Committee (IACUC). Mice were given free access to irradiated rodent feed (TD. 180,911, Envigo Teklad diet, Madison, WI) and sterile water. Animals were acclimated to the environment for approximately 7–14 days to determine that they were healthy based on observed behavior and weight gain. A female was placed with a male overnight for the purpose of timed matings. The following morning males were removed from the cages and positive vaginal plugs were identified. […] The time of conception was considered to be midnight on the evening of the mating. Treatment of plugged females was started at the morning of the day of plug detection (gestation day (GD) 0.5).
Mice pups at this stage of development (PND 28) are equivalent to humans of 2 years of age. […] Pregnant dams were randomly assigned to DTG or vehicle group. […] Survival rate of pups was 100% between PND 4 and 21 in both groups. Further body weights of pups were measured during preweaning duration. […] Furthermore, between age PND 28 and 34, live animals were evaluated for biochemical changes in the brain by magnetic resonance imaging (MRI) (Fig. 5D–F). All the tests were performed around 6 days post weaning to avoid confounding effect of stress related to separation from mother. Microstructural and metabolite measurements were conducted in live pups using bioimaging methods, diffusion tensor imaging (DTI), and magnetic resonance spectroscopy (^1H MRS), respectively (Fig. 5D–F). First, pups were scanned using DTI to determine microstructural changes in six different brain regions, hippocampus (HI), cortex (CT), striatum (ST), thalamus (TH), hypothalamus (HY), and cerebellum (CE). […] As FA represents anisotropic movement of water molecules along the axons, reduction in FA values indicated axonal and/or myelin damage in developing brain of adolescent pups in the DTG-treated group. […] This allowed evaluation of sex as a biological variant (Supplementary Fig. 4). […] Further, the same pups were scanned using ^1H MRS to measure N-acetylaspartate (NAA), total choline (tCho), and total creatine (tCre) in hippocampus (HI) only (Fig. 5F). NAA is a highly concentrated metabolite in the CNS and is a neuron-specific metabolite that acts as a non-invasive ^1H MRS marker for neuronal integrity, health, and cell number. […] Similar to DTI, sex differences were evaluated in the ^1H MRS study (Supplementary Fig. 5).

[3] = dams 50 mg/kg/day oral through entire gestation

C[C@@H]1CCO[C@H]2Cn3cc(C(=O)NCc4ccc(F)cc4F)c(=O)c(O)c3C(=O)N12 [DTG, Dolutegravir]
plasma drug levels in pregnant dams relative to maximal DTG concentration (Cmax) in human plasma at therapeutic doses ([1]; 50 mg/kg daily): 10 ×
Kp ([1]; embryo brain / dam plasma, GD 16.5): 0.024
Kp ([1]; pup brain / dam plasma, PND 4): 0.038
DTG concentration in plasma of dams ([1]; GD 8.5, 50 mg/kg daily oral gavage from GD 0.5): 38,628.63 ± 4855.53 ng/mL
ratio of embryo brain DTG levels to placenta DTG levels ([1]; GD 16.5): 0.18
DTG concentration in placental tissue ([1]; GD 16.5, 50 mg/kg daily oral): 3528.04 ± 316.56 ng/g
DTG concentration in plasma of dams ([1]; GD 16.5, 50 mg/kg daily oral gavage from GD 0.5): 27,296.3 ± 2701.15 ng/mL
DTG concentration in embryonic brain tissue ([1]; GD 16.5, 50 mg/kg daily oral to dam): 663.6 ± 75.13 ng/g
DTG concentration in brain tissue of pups ([1]; PND 4): 48.1 ± 2.35 ng/g
DTG concentration in plasma of dams ([1]; PND 4, dosing stopped at birth of pups): 1244.2 ± 623.20 ng/mL
DTG concentration in plasma of dams ([1]; PND 12, dosing stopped at birth of pups): 48.95 ± 7.39 ng/mL
DTG concentration in plasma of dams ([1]; PND 21, dosing stopped at birth of pups): 21.97 ± 2.42 ng/mL
DTG level in pup's brain predicted from dam plasma/embryo brain ratio (detection limit) ([1]; PND 28, after cessation of dosing at birth): < 0.1 ng/g
Kp ([1]; female, placenta / dam plasma, GD 16.5): 0.12
viability [2]: 79.2%
Average body weight of pups (C3H/HeJ mice pups; PND 12, in utero exposure): 5.1 ± 0.4 g
Average body weight of pups (C3H/HeJ mice pups; PND 21, in utero exposure): 7.5 ± 0.4 g
No. of female pups delivered per litter (C3H/HeJ mice pups; [3]): 1.2
No. of male pups delivered per litter (C3H/HeJ mice pups; [3]): 2.2
No. of pups delivered per litter (average litter size) (C3H/HeJ mice pups; [3]): 3.5
male to female ratio per litter (C3H/HeJ mice pups; [3]): 2.0
% pup survival (PND 4 to PND 21) (C3H/HeJ mice pups; in utero exposure): 100%
% pup survival (birth to PND 4) (C3H/HeJ mice pups; in utero exposure): 92.8%
structural malformations or variations in newborn pups (C3H/HeJ mice pups; in utero exposure): no structural malformations or variations
